Structures are written as SMILES. Where only a bound is given, the exact number is not on record here.

The IC50 is the concentration that inhibits the measured activity by half. A high value points to a need for much substance.

USP1 (construct USP1 (I-785, GG670, 671AA)/UAF1 (I-677)-Flag), sequence (O94782 whole entry G670A/G671A): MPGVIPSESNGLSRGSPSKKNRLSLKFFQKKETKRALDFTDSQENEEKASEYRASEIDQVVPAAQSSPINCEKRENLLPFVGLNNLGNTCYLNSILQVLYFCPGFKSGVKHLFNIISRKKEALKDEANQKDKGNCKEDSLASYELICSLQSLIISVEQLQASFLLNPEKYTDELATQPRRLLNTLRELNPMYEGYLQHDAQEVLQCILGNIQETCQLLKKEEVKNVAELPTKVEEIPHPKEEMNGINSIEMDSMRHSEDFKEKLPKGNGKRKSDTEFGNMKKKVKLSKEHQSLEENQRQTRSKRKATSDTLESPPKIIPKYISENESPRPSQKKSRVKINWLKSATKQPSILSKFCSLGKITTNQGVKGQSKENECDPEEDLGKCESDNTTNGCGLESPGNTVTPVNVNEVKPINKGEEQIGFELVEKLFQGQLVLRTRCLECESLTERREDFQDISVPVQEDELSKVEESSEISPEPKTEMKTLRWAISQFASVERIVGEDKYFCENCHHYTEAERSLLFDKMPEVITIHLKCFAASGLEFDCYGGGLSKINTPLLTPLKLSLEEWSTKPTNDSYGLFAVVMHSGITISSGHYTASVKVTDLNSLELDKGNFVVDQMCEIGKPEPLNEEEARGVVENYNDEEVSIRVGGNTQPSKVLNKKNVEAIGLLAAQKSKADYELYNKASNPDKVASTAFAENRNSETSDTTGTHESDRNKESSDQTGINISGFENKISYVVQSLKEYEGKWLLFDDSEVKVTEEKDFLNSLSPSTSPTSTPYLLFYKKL
USP1 (construct USP1 (I-785, GG670, 671AA)/UAF1 (I-677)-Flag), sequence (Q8TAF3 whole entry partner): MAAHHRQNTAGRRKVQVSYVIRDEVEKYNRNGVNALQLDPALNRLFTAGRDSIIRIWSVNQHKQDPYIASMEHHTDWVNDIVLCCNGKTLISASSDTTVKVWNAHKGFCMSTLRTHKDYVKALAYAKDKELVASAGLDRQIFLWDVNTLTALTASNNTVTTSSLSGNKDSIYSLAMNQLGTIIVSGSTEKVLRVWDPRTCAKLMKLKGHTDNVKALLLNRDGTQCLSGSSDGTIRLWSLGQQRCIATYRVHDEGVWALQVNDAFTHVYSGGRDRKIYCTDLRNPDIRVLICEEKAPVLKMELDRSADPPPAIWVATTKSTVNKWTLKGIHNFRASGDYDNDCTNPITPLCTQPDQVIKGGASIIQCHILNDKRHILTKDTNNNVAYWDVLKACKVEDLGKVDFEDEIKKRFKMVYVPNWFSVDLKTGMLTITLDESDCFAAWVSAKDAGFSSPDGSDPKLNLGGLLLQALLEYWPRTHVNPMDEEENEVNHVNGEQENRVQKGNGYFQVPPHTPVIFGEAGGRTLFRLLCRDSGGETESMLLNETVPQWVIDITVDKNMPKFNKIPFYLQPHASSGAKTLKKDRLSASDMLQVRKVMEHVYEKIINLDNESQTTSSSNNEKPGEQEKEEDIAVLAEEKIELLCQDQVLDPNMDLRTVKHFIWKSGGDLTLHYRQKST

This test has as its target USP1 (construct USP1 (I-785, GG670, 671AA)/UAF1 (I-677)-Flag) (Homo sapiens (Human), UniProt O94782, G670A/G671A). The test can be described thus: Ubiquitin-Rhodamine 110 assay for USP1 activity. The test is classed as biochemical. Conditions: USP1/UAF1 25 pM, Ub-Rh110 25 nM, 30 min preincubation. Here is the method:
Example 53: Ubitquin-Rhodamine 110 Assay for USP1 Activity
The HTS assay was performed in a final volume of 20 μL in assay buffer containing 20 mM Tris-HCl (pH 8.0, (1M Tris-HCl, pH 8.0 solution; Corning 46-031-CM)), 2 mM CaCl2 (1M Calcium Chloride solution; Sigma #21114) 1 mM GSH (L-Glutathione reduced; Sigma #G4251), 0.01% Prionex ([…] filtered, Sigma #G-0411), and 0.01% Triton X-100. Stock compound solutions were stored at −20° C. as 10 mM in DMSO. Up to 1 month prior to the assay, 2 mM test compounds were pre-dispensed into assay plates (Black, low volume; Corning #3820) and frozen at −20° C. Prestamped assay plates were allowed to come to room temperature on the day of the assay. For the screen, 100 nL of 2 mM was pre-dispensed for a final screening concentration of […] (DMSO(fc)=0.5%). The final concentration of the enzyme (USP1, construct USP1 (I-785, GG670, 671AA)/UAF1 (I-677)-Flag; Viva) in the assay was 100 pM. Final substrate (Ub-Rh110; Ubiquitin-Rhodamine 110, R&D Systems #U-555) concentration was 25 nM with [Ub-Rh110]<<Km. […] Plates were incubated stacked for 45 minutes at room temperature before fluorescence was read on the Envision (Excitation at 485 nm and Emission at 535 nm; Perkin Elmer) or on the PheraSTAR (Excitation at 485 nm and Emission at 535 nm; BMG Labtech)
Nanoliter quantities of either an 8-point or 10-point, 3-fold serial dilution in DMSO was pre-dispensed into assay plates (Perkin Elmer, ProxiPlate-384 F Plus, #6008269) for a final test concentration range of either 25 μM to 11 nM or 25 μM to 1.3 nM, respectively. The final concentration of the enzyme (USP1, construct USP1 (I-785, GG670, 671AA)/UAF1 (I-677)-Flag; Viva) in the assay was 25 pM. Final substrate (Ub-Rh110; Ubiquitin-Rhodamine 110, R&D Systems #U-555) concentration was 25 nM with [Ub-Rh110]<<Km. […] Plates were incubated stacked for 20 minutes at room temperature before 5 μL of stop solution (final concentration of 10 mM citric acid in assay buffer (Sigma, #251275-500G)). Fluorescence was read on the Envision (Excitation at 485 nm and Emission at 535 nm; Perkin Elmer) or on the PheraSTAR (Excitation at 485 nm and Emission at 535 nm; BMG Labtech).
For both assay formats data were reported as percent inhibition compared with control wells based on the following equation: % inh=[1−((FLU−AveLow)/(AveHigh−AveLow))]×100 where FLU=measured Fluorescence, AveLow=average Fluorescence of no enzyme control (n=16), and AveHigh=average Fluorescence of DMSO control (n=16). IC50 values were determined by curve fitting of the standard 4 parameter logistic fitting algorithm included in the Activity Base software package: IDBS XE Designer Model205. Data is fitted using the Levenburg Marquardt algorithm.
In the case of `CC(C)c1ccccc1-c1ncc2c(n1)n(Cc1ccc(-c3ccnn3C(C)C)cc1)c(=O)n2C` [Compound I-284, 9-(4-(1-isopropyl-1H-pyrazol-5-yl)benzyl)-2-(2-isopropylphenyl)-7-methyl-7,9-dihydro-8H-purin-8-one], the IC50 fell in the range of 0.2 to 2 µM.
Compound `Cn1cc(C(F)(F)F)nc1-c1ccc(Cn2c(=O)[nH]c3cnc(-c4cccnc4N4CCC4)nc32)cc1` [Compound I-335, 2-(2-(azetidin-1-yl)pyridin-3-yl)-9-(4-(1-methyl-4-(trifluoromethyl)-1H-imidazol-2-yl)benzyl)-7,9-dihydro-8H-purin-8-one] came in with an IC50 of 0.05 to 0.2 µM.
Consider `O=c1[nH]c2cnc(-c3ccccc3C3CC3)nc2n1Cc1ccc(-n2cccn2)cc1` [Compound I-94, 9-(4-(1H-pyrazol-1-yl)benzyl)-2-(2-cyclopropylphenyl)-7,9-dihydro-8H-purin-8-one], for which the IC50 was less than 0.05 µM.
In turn, `CC(C)c1cccc(F)c1-c1ncc2[nH]c(=O)n(Cc3ccc(-n4cccn4)cc3)c2n1` [Compound I-96, 9-(4-(1H-pyrazol-1-yl)benzyl)-2-(2-fluoro-6-isopropylphenyl)-7,9-dihydro-8H-purin-8-one] displayed an IC50 of less than 0.05 µM.
The compound `CC(C)c1ccccc1-c1ncc2[nH]c(=O)n(Cc3ccc(C(=O)N(C)CC(=O)N(C)C)cc3)c2n1` [Compound I-380, N-(2-(dimethylamino)-2-oxoethyl)-4-((2-(2-isopropylphenyl)-8-oxo-7,8-dihydro-9H-purin-9-yl)methyl)-N-methylbenzamide] gave an IC50 of 0.05 to 0.2 µM.
In the case of `CC(C)c1c(F)cccc1-c1ncc2[nH]c(=O)n(Cc3ccc(-c4nc(C(F)(F)F)cn4C)cc3)c2n1` [Compound I-193, 2-(3-fluoro-2-isopropylphenyl)-9-(4-(1-methyl-4-(trifluoromethyl)-1H-imidazol-2-yl)benzyl)-7,9-dihydro-8H-purin-8-one], the IC50 was less than 0.05 µM.
`CC(C)c1ncccc1-c1ncc2[nH]c(=O)n(Cc3ccc(-c4nc(C(F)(F)F)cn4C)c(F)c3)c2n1` [Compound I-83, 9-(3-fluoro-4-(1-methyl-4-(trifluoromethyl)-1H-imidazol-2-yl)benzyl)-2-(2-isopropylpyridin-3-yl)-7,9-dihydro-8H-purin-8-one] had an IC50 of less than 0.05 µM.
Then `CC(C)c1ccccc1-c1ncc2[nH]c(=O)n([C@@H]3CCOc4ccccc43)c2n1` [Compound I-159, (R)-9-(chroman-4-yl)-2-(2-isopropylphenyl)-7,9-dihydro-8H-purin-8-one], with 0.2 to 2 µM; and `CC(C)c1ccccc1-c1ncc2c(n1)n(Cc1ccc(-c3ncc[nH]3)cc1)c(=O)n2C` [Compound I-529, 9-(4-(1H-Imidazol-2-yl)benzyl)-2-(2-isopropylphenyl)-7-methyl-7,9-dihydro-8H-purin-8-one], with 0.05 to 0.2 µM.
With `CC(C)c1ncc(F)cc1-c1ncc2c(n1)n(Cc1ccc(-c3nc(C(F)(F)F)cn3C)cc1)c(=O)n2C` [Compound I-69, 2-(5-fluoro-2-isopropylpyridin-3-yl)-7-methyl-9-(4-(1-methyl-4-(trifluoromethyl)-1H-imidazol-2-yl)benzyl)-7,9-dihydro-8H-purin-8-one], the IC50 is less than 0.05 µM.
As for `Cc1nc(S(=O)(=O)Nc2ccc(Cn3c(=O)n(C)c4cnc(-c5ccccc5C(C)C)nc43)cc2)cn1C` [Compound I-455, N-(4-((2-(2-isopropylphenyl)-7-methyl-8-oxo-7,8-dihydro-9H-purin-9-yl)methyl)phenyl)-1,2-dimethyl-lH-imidazole-4-sulfonamide], the figure is more than 2 µM; as for `COc1ccc(-c2cn(-c3ccc(Cn4c(=O)[nH]c5cnc(-c6ccccc6C(C)C)nc54)cc3)nn2)cc1` [Compound I-341, 2-(2-isopropylphenyl)-9-(4-(4-(4-methoxyphenyl)-1H-1,2,3-triazol-1-yl)benzyl)-7,9-dihydro-8H-purin-8-one], 0.2 to 2 µM.
The compound `CC(C)c1ccccc1-c1ncc2[nH]c(=O)n(Cc3ccc(-n4ccnn4)cc3)c2n1` [Compound I-139, 9-(4-(1H-1,2,3-triazol-1-yl)benzyl)-2-(2-isopropylphenyl)-7,9-dihydro-8H-purin-8-one] yielded an IC50 of 0.05 to 0.2 µM.
As for `CC(C)c1ccccc1-c1ncc2c(n1)n(Cc1ccc(OCC3CC3)cc1)c(=O)n2C` [Compound I-228, 9-(4-(cyclopropylmethoxy)benzyl)-2-(2-isopropylphenyl)-7-methyl-7,9-dihydro-8H-purin-8-one], the figure is 0.05 to 0.2 µM; as for `CC(C)c1ccccc1-c1ncc2[nH]c(=O)n(Cc3ccc(-n4cccn4)nc3)c2n1` [Compound I-146, 9-((6-(1H-pyrazol-1-yl)pyridin-3-yl)methyl)-2-(2-isopropylphenyl)-7,9-dihydro-8H-purin-8-one], 0.05 to 0.2 µM; as for `CC(C)c1ncccc1-c1ncc2c(n1)n([C@@H](C)c1ccc(-c3nc(C(F)(F)F)cn3C)cc1)c(=O)n2C` [Compound I-116, (S)-2-(2-isopropylpyridin-3-yl)-7-methyl-9-(1-(4-(1-methyl-4-(trifluoromethyl)-1H-imidazol-2-yl)phenyl)ethyl)-7,9-dihydro-8H-purin-8-one], less than 0.05 µM.
With `CC(C)c1ccccc1-c1ncc2[nH]c(=O)n(Cc3ccc(-c4cn[nH]c4)cc3)c2n1` [Compound I-539, 9-(4-(1H-Pyrazol-4-yl)benzyl)-2-(2-isopropylphenyl)-7,9-dihydro-8H-purin-8-one], the IC50 is 0.2 to 2 µM.
As to `CC(C)c1ccccc1-c1ncc2[nH]c(=O)n(Cc3ccc(C(=O)N4CCC(F)(F)C4)cc3)c2n1` [Compound I-392, 9-(4-(3,3-difluoropyrrolidine-1-carbonyl)benzyl)-2-(2-isopropylphenyl)-7,9-dihydro-8H-purin-8-one], the IC50 is less than 0.05 µM.
On to `CCC(COC)Oc1ncccc1-c1ncc2[nH]c(=O)n(Cc3ccc(-c4nc(C(F)(F)F)cn4C)cc3)c2n1` (stereo not shown) [Compound I-428, 2-(2-((1-methoxybutan-2-yl)oxy)pyridin-3-yl)-9-(4-(1-methyl-4-(trifluoromethyl)-1H-imidazol-2-yl)benzyl)-7,9-dihydro-8H-purin-8-one], for which the IC50 is 0.05 to 0.2 µM.
As for `CC(C)c1ncc(F)cc1-c1ncc2[nH]c(=O)n(Cc3ccc(-c4nc(C(F)(F)F)cn4C)cc3)c2n1` [Compound I-67, 2-(5-fluoro-2-isopropylpyridin-3-yl)-9-(4-(1-methyl-4-(trifluoromethyl)-1H-imidazol-2-yl)benzyl)-7,9-dihydro-8H-purin-8-one], the figure is less than 0.05 µM.
With `Cc1cc(Cl)nn1-c1ccc(Cn2c(=O)[nH]c3cnc(-c4cccnc4C(C)C)nc32)cc1` [Compound I-52, 9-(4-(3-chloro-5-methyl-1H-pyrazol-1-yl)benzyl)-2-(2-isopropylpyridin-3-yl)-7,9-dihydro-8H-purin-8-one], the IC50 was less than 0.05 µM.
`CC(C)c1ccccc1-c1ncc2c(n1)n(Cc1ccc(-c3nnc4ccccn34)cc1)c(=O)n2C` [Compound I-286, 9-(4-([1,2,4]triazolo[4,3-a]pyridin-3-yl)benzyl)-2-(2-isopropylphenyl)-7-methyl-7,9-dihydro-8H-purin-8-one]: the IC50 is less than 0.05 µM.
Take `CC(C)c1ccccc1-c1ncc2c(n1)n(Cc1ccc(-c3ccccc3OCCN(C)C)cc1)c(=O)n2C` [Compound I-259, 9-((2′-(2-(dimethylamino)ethoxy)-[1,1′-biphenyl]-4-yl)methyl)-2-(2-isopropylphenyl)-7-methyl-7,9-dihydro-8H-purin-8-one]: the IC50 is less than 0.05 µM.
On to `CC(C)c1ccccc1-c1ncc2[nH]c(=O)n([C@H](CO)c3ccc(F)cc3)c2n1` [Compound I-180, (S)-9-(1-(4-fluorophenyl)-2-hydroxyethyl)-2-(2-isopropylphenyl)-7,9-dihydro-8H-purin-8-one], for which the IC50 lay in the range of 0.05 to 0.2 µM.
The compound `Cc1nc(-c2ccc(Cn3c(=O)n(C)c4cnc(-c5ccccc5C(C)C)nc43)cc2)nn1C` [Compound I-279, 9-(4-(1,5-dimethyl-1H-1,2,4-triazol-3-yl)benzyl)-2-(2-isopropylphenyl)-7-methyl-7,9-dihydro-8H-purin-8-one] had an IC50 of less than 0.05 µM.

The values are drawn from patent US10189841B2, “Purinones as ubiquitin-specific protease 1 inhibitors” (Forma Therapeutics, Inc., priority 2015, dated 2019).
